Experimental data as given in patent US20170276668A1, “NEURAL MICROPHYSIOLOGICAL SYSTEMS AND METHODS OF USING THE SAME” (The Administrators of the Tulane Educational Fund, priority 2014, published 2017).
“Also recorded” adds a separate entry of the source.

Legend:
[1] = test system: DRG/Schwann cell co-culture; experiment: DRG/SC three-dimensional co-culture: neurite growth and myelin formation (immunohistochemistry, confocal); format: cell-based, rat
Text: The dual hydrogel culture system was fabricated using a digital projection photolithography, as described above. A schematic of the process is seen in FIG. 13. In brief, a photolithography apparatus comprised of a collimated UV light source (OmniCure 1000 with 320-500 nm filter, EXFO, Quebec, Canada) and a visible light source (SOLA light engine with […] filter, Lumencor, Oreg., USA), a digital micromirror device (DMD) (Discovery™ 3000, Texas Instruments, Dallas, Tex.) as a dynamic photomask and a 2× Plan Fluor objective lens (Nikon Instruments, Tokyo, Japan) were utilized to irradiate the photocurable hydrogel solution that was contained in a permeable cell culture insert with 0.4 μm pore size. The inserts were either collagen-coated PTFE Transwell® Permeable Support or Transwell™ Clear Polyester Membrane Inserts (Corning Inc., Corning, N.Y., USA) to investigate the influence of collagenated substrates on SC/neuron incorporation. The dual hydrogel system consists of two compartments: a cell permissive section that contains neurons and a cell restrictive section that acts as a hydrogel mold. In order to make the cell restrictive section, a solution of 10% (w/v) PEG-diacrylate (Mn 1000; Polysciences Inc., Warrington, Pa.) and 0.5% (w/v) Irgacure 2959 in PBS was irradiated with 85 mW/cm2 UV light as measured by a radiometer (306 UV Powermeter, Optical Associates, San Jose, Calif.), for 38 seconds to make a PEG micromold, shown in FIG. 13. The cell culture insert was treated with filtered Rain-X® Original Glass Treatment (RainX, Houston, Tex.) prior to addition of the gel solution in order to avoid meniscus behavior. 0.5 ml of solution was added to each 6-well plate insert. Addition of 0.5 ml solution results in a gel thickness of 480 μm. Hydrogel constructs were washed in DPBS with 1% antibiotic-antimycotic additive to inhibit contamination.
As the first step of the co-culture, the primary tissue culture was performed. The PEG constructs were prepared and immersed in the adhesion media and incubated (37° C., 5% C02) overnight prior to the tissue culture. The adhesion media was comprised of Neurobasal medium supplemented with B27 (2% v/v), L-glutamine (0.25% v/v), nerve growth factor (NGF) (0.02 μg/ml), fetal bovine serum (FBS) (10% v/v/) and penicillin/streptomycin (1% v/v) (all from Life Technologies, CA). The constructs were then cultured with Long Evans rat embryo dorsal root ganglion (DRG) tissue, in keeping with the guidelines of the Institutional Animal Care and Use Committee. The DRGs were isolated from embryonic day 15 rat embryos and trimmed prior to the culture. A single DRG explant was placed in each construct. The DRGs were then incubated in fresh adhesion media overnight to allow the tissue to adhere to the insert
The SCs were dispersed in 50% MeDex solution in SC medium as described above to reach a cell count of 20×10^6 cell/mL. In order to achieve an evenly distributed single cell solution, the gel mixture was pipetted up and down vigorously. The adhesion medium was aspirated from the channels gently to avoid disturbing the adhered DRGs and 2 μL of the MeDex single cell solution was added to each PEG micromold. A negative photomask was loaded on the DMD and the gel solution in the channel was crosslinked with 85 mW/cm^2 visible light as measured by a radiometer (306 UV Powermeter, Optical Associates, San Jose, Calif.) after 30 seconds of irradiation using a visible light source (SOLA light engine with 375-650 nm filter, Lumencor, Oreg., USA). The constructs were gently washed using the wash buffer described above three times.
In order to understand the influence of various media regimens on the behavior of DRGs and SCs in a three-dimensional co-culture, two different culture systems were applied. The culture systems are described in Table 2. Culture System 1 has two phases where Media 1 (10 days) and 2 (15 days) are applied in that order. […]

[2] = test system: DRG explants in dual hydrogel constructs; format: cell-based, rat; settings: for response duration before (t1-t5) vs after (t16-t20) drug wash-in / response amplitude before (t1-t5) vs after (t16-t20) drug wash-in: 20 μM DNQX and 50 μM APV applied together; for response duration before (t1-t5) vs after (t16-t20) drug wash-in: n=4, at half-peak; for response amplitude before (t1-t5) vs after (t16-t20) drug wash-in: n=4, peak-to-peak
[3] = test system: neuronal cell death in vitro; settings: cited from earlier work
DRG neurites = experiment: DRG neurite growth toward a factor diffusing from a reservoir in the hydrogel construct; format: cell-based; settings: NGF vs BSA diffusing from a reservoir, FIG. 28
Retinal explants = experiment: Retinal explant culture in 3D micropatterned hydrogels; format: cell-based, rat; settings: neurobasal Sato medium supplemented with the factor, one week, β-III tubulin
Description: Work and experimental data for the dorsal root ganglia model is presented in the present disclosure. For a central nervous system model, the growth of retinal explants has also been explored. FIGS. 27A-27B depict a culture of retinal (CNS) tissue. Retinal explants from embryonic rats were cultured within 3D micropatterned hydrogels in “neurobasal Sato” medium supplemented with either ciliary neurotrophic factor CNTF ([…]) or brain-derived neurotrophic factor BDNF ([…]).

## O=C1O[C@H]([C@@H](O)CO)C(O)=C1O [AA, L-ascorbic acid]
[1]; 25 days of media containing AA (NCol-25, Col-25)
  amount of myelin: considerable increase
[1]; longer exposures to AA, MBP, MAG, PO stains
  ratio of myelin to neuronal growth (percentage of myelin): increases

## N[C@H](CCCP(=O)(O)O)C(=O)O [APV, (2R)-amino-5-phosphonopentanoate]
[2]
  response duration before (t1-t5) vs after (t16-t20) drug wash-in: no statistically significant difference; also recorded: no marked change
  response amplitude before (t1-t5) vs after (t16-t20) drug wash-in: no statistically significant difference; also recorded: no marked change

## CC(C)C[C@H](NC(=O)[C@H](Cc1ccccc1)NC(=O)c1cnccn1)B(O)O [Bortezomib]
[3]
  Neurotoxic dose: 0.02 µM

## O=C1N=c2cc([N+](=O)[O-])c([N+](=O)[O-])cc2=NC1=O [DNQX, 6,7-dinitroquinoxaline-2,3Dione]
[2]
  response duration before (t1-t5) vs after (t16-t20) drug wash-in: no statistically significant difference; also recorded: no marked change
  response amplitude before (t1-t5) vs after (t16-t20) drug wash-in: no statistically significant difference; also recorded: no marked change

## CC(=O)O[C@H]1C(=O)[C@@]2(C)[C@H]([C@H](OC(=O)c3ccccc3)[C@]3(O)C[C@H](OC(=O)[C@H](O)[C@@H](NC(=O)c4ccccc4)c4ccccc4)C(C)=C1C3(C)C)[C@]1(OC(C)=O)CO[C@@H]1C[C@@H]2O [Paclitaxel]
[3]
  Neurotoxic dose: 0.1 µM

## NC1=N[C@H](O)[C@H]2[C@H]3O[C@]4(O)O[C@@H]([C@@H](O)[C@@]2(N1)[C@@H]4O)[C@]3(O)CO [TTX, tetrodotoxin]
[2]
  average response amplitude (peak-to-peak) after wash-in: 0.04 μV
  effect on CAP / population response: reversibly abolished; also recorded: completely abolished; also recorded: abolishment of population response
  time to complete abolishment of responses: ≤ 2 min

## CC[C@]1(O)C[C@H]2CN(CCc3c([nH]c4ccccc34)[C@@](C(=O)OC)(c3cc4c(cc3OC)N(C=O)[C@H]3[C@@](O)(C(=O)OC)[C@H](OC(C)=O)[C@]5(CC)C=CCN6CC[C@]43[C@@H]65)C2)C1 [Vincristine]
[3]
  Neurotoxic dose: 0.1 µM

## NGF: nerve growth factor
DRG neurites
  direction of DRG neurite growth: grow preferentially toward NGF

## collagen
[1]; 25 days, addition of collagen I and III
  amount of myelin formation: increased
[1]; 25 days, collagen-coated inserts, n=15-18 constructs
  volume of neuronal outgrowth, cultures with vs without collagen: significantly higher volume; also recorded: significantly more neuronal growth
[1]; 25 days, presence of collagen, FIG. 17B
  amount of MBP-positive myelin: increased
[1]; 25 days, presence of collagen, FIG. 18B
  amount of PO-positive myelin: increased

B1: BDNF: brain-derived neurotrophic factor (protein, UniProt P23560 19-247, looked up)
Neurotrophic factor BDNF …: APMKEANIRGQGGLAYPGVRTHGTLESVNGPKAGSRGLTSLADTFEHVIEELLDEDQKVRPNEENNKDADLYTSRVMLSSQVPLEPPLLFLLEEYKNYLDAANMSMRVRRHSDPARRGELSVCDSISEWVTAADKKTAVDMSGGTVTVLEKVPVSKGQLKQYFYETKCNPMGYTKEGCRGIDKRHWNSQCRTTQSYVRALTMDSKKRIGWRFIRIDTSCVCTLTIKRGR
Retinal explants
  retinal ganglion cell axon extension: Observable retinal ganglion cell axon extension

B2: CNTF: ciliary neurotrophic factor (protein, UniProt P26441 1-200, looked up)
Ciliary neurotrophic factor: MAFTEHSPLTPHRRDLCSRSIWLARKIRSDLTALTESYVKHQGLNKNINLDSADGMPVASTDQWSELTEAERLQENLQAYRTFHVLLARLLEDQQVHFTPTEGDFHQAIHTLLLQVAAFAYQIEELMILLEYKIPRNEADGMPINVGDGGLFEKKLWGLKVLQELSQWTVRSIHDLRFISSHQTGIPARGSHYIANNKKM
Retinal explants
  retinal ganglion cell axon extension: Observable retinal ganglion cell axon extension
